Publication PMC9739398, “Substrate Specificity of GSDA Revealed by Cocrystal Structures and Binding Studies” (International Journal of Molecular Sciences, 2022)

Experiments:
[1] = target: T1, AtGSDA (Arabidopsis thaliana, UniProt Q94BU8); assay: thermal shift (dye); deamination by mass spectrometry; type: biochemical; conditions: printed as nearly 2; turned over to 2'-O-methylxanthosine
T1 construct: gene GSDA; SF form, Ser29-Tyr185, N-terminal 6xHis tag (pET-28a), recombinant, homodimer, zinc enzyme; full-length in pET-21b also made
T1 sequence (Q94BU8 29-185): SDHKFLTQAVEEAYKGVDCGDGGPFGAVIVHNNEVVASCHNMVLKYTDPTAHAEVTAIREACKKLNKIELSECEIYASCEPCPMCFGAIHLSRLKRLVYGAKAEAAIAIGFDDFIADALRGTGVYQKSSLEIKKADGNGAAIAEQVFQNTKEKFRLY

[2] = target: T1, AtGSDA; assay: thermal shift; deamination by mass spectrometry; type: biochemical; conditions: weak substrate; crystal soak reached product stage
[3] = target: T1, AtGSDA; assay: crystal structure; thermal shift; type: binding; conditions: active site, described as competitive inhibitor
[4] = target: T2, GDA (Escherichia coli, UniProt P76641); assay: deamination by mass spectrometry; thermal shift; type: biochemical; conditions: enzyme:substrate 1:100; 50 mM sodium bicarbonate, neutral
T2 construct: gene guaD; recombinant, purified as in a cited protocol
T2 sequence (P76641 1-439): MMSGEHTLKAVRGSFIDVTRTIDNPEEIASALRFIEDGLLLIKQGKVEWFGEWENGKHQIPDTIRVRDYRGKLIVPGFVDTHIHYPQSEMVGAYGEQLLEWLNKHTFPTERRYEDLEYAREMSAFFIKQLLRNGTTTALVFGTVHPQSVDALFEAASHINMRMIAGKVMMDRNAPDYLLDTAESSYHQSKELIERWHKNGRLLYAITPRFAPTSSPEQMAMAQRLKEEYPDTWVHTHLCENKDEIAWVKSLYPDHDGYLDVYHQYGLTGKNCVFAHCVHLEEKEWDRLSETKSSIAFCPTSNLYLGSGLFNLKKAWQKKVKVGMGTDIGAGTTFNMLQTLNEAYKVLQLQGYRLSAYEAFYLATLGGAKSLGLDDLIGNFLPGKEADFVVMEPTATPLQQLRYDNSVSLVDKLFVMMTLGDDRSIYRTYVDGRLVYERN

[5] = target: T3, AtGSDA (Arabidopsis thaliana, UniProt Q94BU8, Y185F); assay: crystal structure; thermal shift; type: binding; conditions: one ligand per dimer, substrate form
T3 construct: gene GSDA; SF form, Ser29-Tyr185, N-terminal 6xHis tag (pET-28a), recombinant, homodimer, zinc enzyme; full-length in pET-21b also made
T3 sequence (Q94BU8 29-185 Y185F): as the sequence (Q94BU8 29-185) above, with Y157F counted along it

[6] = target: T4, AtGSDA (Arabidopsis thaliana, UniProt Q94BU8, Y185E); assay: thermal shift; type: binding
T4 construct: gene GSDA; SF form, Ser29-Tyr185, N-terminal 6xHis tag (pET-28a), recombinant, homodimer, zinc enzyme; full-length in pET-21b also made
T4 sequence (Q94BU8 29-185 Y185E): as the sequence (Q94BU8 29-185) above, with Y157E counted along it

[7] = target: T5, AtGSDA (Arabidopsis thaliana, UniProt Q94BU8, Y185K); assay: thermal shift; type: binding
T5 construct: gene GSDA; SF form, Ser29-Tyr185, N-terminal 6xHis tag (pET-28a), recombinant, homodimer, zinc enzyme; full-length in pET-21b also made
T5 sequence (Q94BU8 29-185 Y185K): as the sequence (Q94BU8 29-185) above, with Y157K counted along it

[8] = target: T6, AtGSDA (Arabidopsis thaliana, UniProt Q94BU8, E82Q); assay: thermal shift; type: binding; conditions: catalytically impaired
T6 construct: gene GSDA; SF form, Ser29-Tyr185, N-terminal 6xHis tag (pET-28a), recombinant, homodimer, zinc enzyme; full-length in pET-21b also made
T6 sequence (Q94BU8 29-185 E82Q): as the sequence (Q94BU8 29-185) above, with E54Q counted along it

[9] = target: T3, AtGSDA; assay: thermal shift; type: binding
[10] = target: T1, AtGSDA; assay: thermal shift (dye); crystal structure (product formed from soaked guanosine); type: binding; conditions: printed as nearly 2; zinc enzyme; active site

In the case of `CO[C@@H]1[C@H](O)[C@@H](CO)O[C@H]1n1cnc2c(=O)[nH]c(N)nc21` [compound 1, 2′-O-methylguanosine], the ΔTm [1] is reported as ~ 2 °C.
`CNc1nc2c(ncn2[C@@H]2O[C@H](CO)[C@@H](O)[C@H]2O)c(=O)[nH]1` [compound 2, N^2-methylguanosine] was tested, and the ΔTm [2] was “the inhibitors Ado/isoG or the weak substrate N^2-mG normally lacked one or two functional groups”.
`Nc1ncnc2c1ncn2[C@@H]1O[C@H](CO)[C@@H](O)[C@H]1O` [compound 3, adenosine] was tested, and the ΔTm [3] was “The ligand adenosine (Ado) maintained its interactions with Ala81 and Asn69 via N6”.
For `O=c1[nH]cnc2c1ncn2[C@@H]1O[C@H](CO)[C@@H](O)[C@H]1O` [compound 4, inosine], the ΔTm [3] was “The binding position was almost unchanged when compared to Gua bound by AtGSDA”.
In the case of `Nc1nc(=O)[nH]c2c1ncn2[C@@H]1O[C@H](CO)[C@@H](O)[C@H]1O` [compound 5, isoguanosine], the ΔTm ([3]; 2-keto group ligates zinc) is reported as “its binding mode was similar to that of Xan (Figure 3c, PDB 7DM6)”.
In the case of `Nc1nc2[nH]cnc2c(=O)[nH]1` [guanine], the ΔTm [4] is reported as “GDA showed excellent deamination capability by converting almost all of the guanine substrate”.
With `Nc1nc2c(ncn2[C@@H]2O[C@H](CO)[C@@H](O)[C@H]2O)c(=O)[nH]1` [guanosine] the ΔTm [5] was “the Y185F-Gua structure indicated that only one Gua molecule was bound”, the ΔTm [6] was “WT and Y185F/E showed similar binding affinities toward the ligands” and the ΔTm [7] was “the Y185K and E82Q mutants showed differentially reduced affinities”. For the same molecule, the ΔTm [8] was “the Y185K and E82Q mutants showed differentially reduced affinities”.
For `O=c1[nH]c(=O)c2ncn([C@@H]3O[C@H](CO)[C@@H](O)[C@H]3O)c2[nH]1` [xanthosine], the ΔTm [9] was “WT and Y185F/E showed similar binding affinities toward the ligands”, the ΔTm [10] was ~ 2 °C and the ΔTm [6] was “WT and Y185F/E showed similar binding affinities toward the ligands”.
